According to article PMC6222660, “Antiviral 4-Hydroxypleurogrisein and Antimicrobial Pleurotin Derivatives from Cultures of the Nematophagous Basidiomycete Hohenbuehelia grisea” (Molecules : A Journal of Synthetic Chemistry and Natural …, 2018):
Values after ≈ are worked out from the molar mass of the structure shown. Like-named read-outs stand apart in the source and are kept apart here.

Tests used:
Assay type in all cases: cell-based
Pichia anomala DSM6766 = assay: MIC serial dilution assay; design: key: -: no inhibition observed under test conditions; conditions: highest concentration 67 or 100 µg/mL
Description: (§1) The minimum inhibitory concentration (MIC) for each compound was ascertained in a serial dilution assay in 96-well microtiter plates, as previously published by Kuhnert et al., using YM media for yeasts and filamentous fungi and BD^TM Difco™ Mueller Hinton Broth for bacteria.

[1] = test system: Rhodotorula glutinis DSM10134; assay: MIC serial dilution assay; design: key: -: no inhibition observed under test conditions; conditions: highest concentration 67 or 100 µg/mL
Description: as §1

Bacillus subtilis DSM10 = assay: MIC serial dilution assay; design: key: -: no inhibition observed under test conditions; conditions: highest concentration 67 or 100 µg/mL
Description: as §1

Mucor hiemalis DSM2656 = assay: MIC serial dilution assay; design: key: -: no inhibition observed under test conditions; conditions: highest concentration 67 or 100 µg/mL
Description: as §1

Candida albicans DSM1665 = assay: MIC serial dilution assay; design: key: -: no inhibition observed under test conditions; conditions: highest concentration 67 or 100 µg/mL
Description: as §1

Candida tenuis MUCL29892 = assay: MIC serial dilution assay; design: key: -: no inhibition observed under test conditions; conditions: highest concentration 67 or 100 µg/mL
Description: as §1

[2] = test system: Staphylococcus aureus DSM346; assay: MIC serial dilution assay; design: key: -: no inhibition observed under test conditions; conditions: highest concentration 67 or 100 µg/mL
Description: as §1

[3] = test system: Micrococcus luteus DSM1790; assay: MIC serial dilution assay; design: key: -: no inhibition observed under test conditions; conditions: highest concentration 67 or 100 µg/mL
Description: as §1

Mucor plumbeus MUCL49355 = assay: MIC serial dilution assay; design: key: -: no inhibition observed under test conditions; conditions: highest concentration 67 or 100 µg/mL
Description: as §1

[4] = test system: cervix carcinoma cell line KB3.1; assay: In vitro cytotoxicity assay; conditions: Homo sapiens, KB 3-1, 120 h, 6 × 10^3 cells/well, treated over five days
Method: (§2) In vitro cytotoxicity assay was performed as described by Richter et al. against the mouse fibroblast cell line L929 and the cervix carcinoma cell line KB3.1.

[5] = test system: mouse fibroblast cell line L929; assay: In vitro cytotoxicity assay; conditions: 120 h, 6 × 10^3 cells/well, treated over five days
Method: as §2

Huh7.5 Fluc cells = assay: Cell viability in HCV assay (firefly luciferase); conditions: at 20 ng/µL
Method: (§3) Figure 4 Antiviral activity of 4-hydroxypleurogrisin (11). NC-Negative control, EGCG-Positive control. HCV assay was performed in triplicates and is presented as the mean ± standard deviation. The asterisk indicates statistically significant differences (* p ≤ 0.05, ** p ≤ 0.01, *** p ≤ 0.001). Huh-7.5 cells were inoculated with RLuc-Jc1 reporter viruses in the presence of 4-hydroxypleurogrisein. The inoculum was removed 4 h later and monolayers were washed three times with PBS and overlaid with fresh medium containing no inhibitors. Infected cells were lysed three days later, and reporter virus infection was determined by renilla luciferase activity (top). The cell viability was measured by determination of firefly luciferase (bottom), which is stably expressed in the target cells.
This assay was carried out as described previously by Mulwa et al.. Huh7.5 cells stably expressing Firefly luciferase (Huh7.5 Fluc) were cultured in Dulbecco’s modified minimum essential medium (DMEM, Life Technologies, Darmstadt, Germany) containing 2 mM L glutamine, 1 × minimum essential medium nonessential amino acids (MEM NEAA, Life Technologies), 100 μg/mL streptomycin, 100 IU/mL penicillin (Life Technologies), 5 μg/mL blasticidin and 10% fetal bovine serum. Cells were maintained in a 37 °C environment with 5% CO2 supply. […]

hepatitis C virus (HCV) = assay: Inhibitory effects on HCV infectivity (Renilla luciferase reporter virus in Huh-7.5 cells); conditions: for activity in the HCV assay in vitro: Huh-7.5 host cells
Method: as §3
This assay was carried out as described previously by Mulwa et al.. Huh7.5 cells stably expressing Firefly luciferase (Huh7.5 Fluc) were cultured in Dulbecco’s modified minimum essential medium (DMEM, Life Technologies, Darmstadt, Germany) containing 2 mM L glutamine, 1 × minimum essential medium nonessential amino acids (MEM NEAA, Life Technologies), 100 μg/mL streptomycin, 100 IU/mL penicillin (Life Technologies), 5 μg/mL blasticidin and 10% fetal bovine serum. Cells were maintained in a 37 °C environment with 5% CO2 supply. Cells were infected with Jc1-derived Renilla reporter viruses in the presence or absence of compounds as described previously. Infected cells were lysed and then frozen at −80 °C for 1 h following measurements of Renilla and Firefly luciferase activities on a Berthold Technologies Centro XS3 Microplate Luminometer (Bad Wildbad, Germany) as indicators of viral genome replication and cell viability, respectively.

[6] = Hansenula anomala, read-out: MIC
[7] = Yamadazyma tenuis, read-out: MIC

Compound | MIC (Bacillus subtilis DSM10; read-out: MIC) [µg/mL] | MIC (Candida albicans DSM1665) | MIC (Candida tenuis MUCL29892; [7]) [µg/mL] | MIC ([2]; read-out: MIC) [µg/mL] | MIC (Mucor plumbeus MUCL49355) | IC50 [4] [µg/mL] | IC50 [5] [µg/mL] | MIC (Pichia anomala DSM6766) | MIC [1] | MIC (Mucor hiemalis DSM2656) | MIC (Candida tenuis MUCL29892) | MIC [2] | MIC [3] | further results
C[C@@H]1CO[C@@H]2c3c(O)ccc(O)c3[C@H]3OC(=O)[C@@H]4CC[C@H]5[C@@H]1CC[C@@]25[C@@H]34 [Compound 2, leucopleurotin, reference compound] | 25 (≈ 70.1 µM) | - | 100 (≈ 281 µM) | 33.3 (≈ 93.4 µM) | - | 2.8 (≈ 7.86 µM) | 2.2 (≈ 6.17 µM) |  |  |  |  |  |  | MIC (Pichia anomala DSM6766; [6]): 66.7 µg/mL (≈ 187 µM); MIC ([1]; read-out: MIC): 33.3 µg/mL (≈ 93.4 µM); MIC (Mucor hiemalis DSM2656; read-out: MIC): 33.3 µg/mL (≈ 93.4 µM); MIC ([3]; read-out: MIC): 66.7 µg/mL (≈ 187 µM)
C[C@@H]1CO[C@@H]2c3c(O)ccc(O)c3C[C@H]3[C@H](C(=O)O)CC[C@H]4[C@@H]1CC[C@@]243 [Compound 7, Leucopleurotinic acid] |  | - |  |  | - | 20 (≈ 55.8 µM) | 17 (≈ 47.4 µM) | - | - | - | - | - | - | MIC (Bacillus subtilis DSM10): -
C[C@@H]1CO[C@@H]2c3c(O)ccc(O)c3C(=O)[C@H]3[C@H](C(=O)O)CC[C@H]4[C@@H]1CC[C@@]243 [Compound 8, 14-oxo-leucopleuotinic acid] | 50 (≈ 134 µM) | - |  |  | - | 22 (≈ 59.1 µM) | 22 (≈ 59.1 µM) | - | - | - | - | - | - | 
CC(C)(O)C1CCC23CC4=C(CC2C(O)(CO)CCC13)C(=O)C=CC4=O (stereo not drawn) [Compound 11, 4-Hydroxypleurogrisein] | 50 (≈ 139 µM) | - |  | 33.3 (≈ 92.4 µM) | - | 7.5 (≈ 20.8 µM) | 6.9 (≈ 19.1 µM) | - | - | - | - |  |  | MIC ([3]; read-out: MIC): 66.7 µg/mL (≈ 185 µM); cytotoxic effects (cell viability, firefly luciferase) (Huh7.5 Fluc cells): cytotoxic effects were noted; IC50 (hepatitis C virus (HCV); Hepatitis C virus, Huh7.5, read-out: IC50 of HCV infectivity): ~5 µg/mL (≈ 13.9 µM); activity in the HCV assay in vitro (hepatitis C virus (HCV)): significant activities in vitro; inhibitory effect on HCV infectivity (hepatitis C virus (HCV); at 10 ng/µL): strong inhibitory effect
CC1COC2C3=C(CC4C(C(=O)O)CCC5C1CCC245)C(=O)C=CC3=O (stereo not drawn) [Compound 3, dihydropleurotinic acid, reference compound] | 100 (≈ 281 µM) | - | 100 (≈ 281 µM) | 66.7 (≈ 187 µM) |  | 18 (≈ 50.5 µM) | 18 (≈ 50.5 µM) |  |  |  |  |  | - | MIC (Pichia anomala DSM6766; [6]): 66.7 µg/mL (≈ 187 µM); MIC ([1]; read-out: MIC): 33.3 µg/mL (≈ 93.4 µM); MIC (Mucor hiemalis DSM2656; read-out: MIC): 16.7 µg/mL (≈ 46.9 µM); MIC (Mucor plumbeus MUCL49355; read-out: MIC): 100 µg/mL (≈ 281 µM)
CC1COC2C3=C(CC4C(C(=O)O)CCC5C1(O)CCC245)C(=O)C=CC3=O (stereo not drawn) [Compound 5, 3-Hydroxy-dihydropleurotinic acid] | 100 (≈ 269 µM) | - | 100 (≈ 269 µM) |  | - | 22 (≈ 59.1 µM) | 22 (≈ 59.1 µM) | - |  | - |  | - | - | MIC ([1]; read-out: MIC): 33.3 µg/mL (≈ 89.4 µM); activity in the HCV assay in vitro (hepatitis C virus (HCV)): devoid of any activity
C[C@H](CO)[C@H]1CC[C@]23C(=O)c4c(O)ccc(O)c4C(=O)[C@H]2[C@H](C(=O)O)CC[C@@H]13 [Compound 10, Di-oxo-leucopleurotinic acid] | 100 (≈ 257 µM) | - |  |  | - | 22 (≈ 56.6 µM) | 22 (≈ 56.6 µM) | - | - | - | - | - | - | 
C/C(=C\c1csc(C)n1)[C@@H]1C[C@@H]2O[C@]2(C)CCC[C@H](C)[C@H](O)[C@@H](C)C(=O)C(C)(C)[C@@H](O)CC(=O)O1 [Epothilone B, reference compound] |  |  |  |  |  | 3e-05 (≈ 5.91e-05 µM) | 0.00062 (≈ 0.00122 µM) |  |  |  |  |  |  | 
C[C@@H]1CO[C@@H]2C3=C(C(=O)C=CC3=O)[C@@H](O)[C@H]3[C@H](C(=O)O)CC[C@H]4[C@@H]1CC[C@@]324 [Compound 6, 14-Hydroxy-dihydropleurotinic acid] |  | - |  |  | - | 22 (≈ 59.1 µM) | 23 (≈ 61.8 µM) | - | - | - | - | - | - | MIC (Bacillus subtilis DSM10): -
C=C1CO[C@@H]2c3c(O)ccc(O)c3[C@H]3OC(=O)[C@@H]4CC[C@H]5[C@@H]1CC[C@@]25[C@@H]34 [Compound 9, Nematoctone] |  | - | 25 (≈ 70.5 µM) |  | - | 18 (≈ 50.8 µM) | 21 (≈ 59.3 µM) | - | - | - |  | - | - | MIC (Bacillus subtilis DSM10): -
CN(C)[C@@H]1C(O)=C(C(N)=O)C(=O)[C@@]2(O)C(O)=C3C(=O)c4c(O)cccc4[C@@](C)(O)[C@H]3[C@H](O)[C@@H]12 [Oxytetracycline, reference compound] |  |  |  | 6.7 (≈ 14.6 µM) |  |  |  |  |  |  |  |  |  | MIC ([3]; read-out: MIC): 0.4 µg/mL (≈ 0.869 µM)
Penicillin [reference compound] |  |  |  |  |  |  |  |  |  |  |  |  |  | MIC (Bacillus subtilis DSM10): Penicillin (6.3) µg/mL
C[C@@H]1CO[C@@H]2C3=C(C(=O)C=CC3=O)[C@H]3OC(=O)[C@@H]4CC[C@H]5[C@@H]1CC[C@@]25[C@@H]34 [Compound 1, pleurotin] | 50 (≈ 141 µM) |  | 25 (≈ 70.5 µM) | 33.3 (≈ 94 µM) |  | 8.5 (≈ 24 µM) | 7.5 (≈ 21.2 µM) |  |  |  |  |  |  | MIC (Pichia anomala DSM6766; [6]): 66.7 µg/mL (≈ 188 µM); MIC ([1]; read-out: MIC): 16.7 µg/mL (≈ 47.1 µM); MIC (Mucor hiemalis DSM2656; read-out: MIC): 8.3 µg/mL (≈ 23.4 µM); MIC (Candida albicans DSM1665; read-out: MIC): 33.3 µg/mL (≈ 94 µM); MIC ([3]; read-out: MIC): 66.7 µg/mL (≈ 188 µM); MIC (Mucor plumbeus MUCL49355; read-out: MIC): 100 µg/mL (≈ 282 µM)
C[C@@H]1[C@H](O)[C@@H](C)/C=C/C=C/CC/C=C/C=C/C=C/C=C/C(O[C@H]2O[C@H](C)[C@@H](O)[C@H](N)[C@@H]2O)CC2O[C@](O)(CC(O)C(O)CCC(O)CC(O)CC(O)CC(=O)O[C@H]1C)CC(O)C2C(=O)O (stereo partly drawn) [Nystatin, reference compound] |  | Nystatin (16.7) µg/mL |  |  | Nystatin (12.5) µg/mL |  |  | Nystatin (16.7) µg/mL | Nystatin (16.7) µg/mL | Nystatin (16.7) µg/mL | Nystatin (12.5) µg/mL |  |  | 
